# Columns and labels:
# Assay type in all cases: cell-based
# ACK = tested on: ACK
# ATR = tested on: ATR
# AurB = tested on: AurB
# BTK = tested on: BTK
# CaMK1a = tested on: CaMK1a
# CAMK2G = tested on: CAMK2G
# CASK = tested on: CASK
# CDK11, CDK8 = test: KiNativ kinase profiling in A375 cells; settings: Lys2, SEQ ID NO 20, 1.0 μM
# CDK4 = tested on: CDK4
# CDK9 = tested on: CDK9
# CHK2 = tested on: CHK2
# CK1a = tested on: CK1a
# CK1g2 = tested on: CK1g2
# CK2a2 = tested on: CK2a2
# DGKQ = tested on: DGKQ
# ERK1 = tested on: ERK1
# GSK3B = tested on: GSK3B
# HPK1 = tested on: HPK1
# IRAKI = tested on: IRAKI
# ITPK1 = tested on: ITPK1
# LRRK2 = tested on: LRRK2
# MAP2K7 = tested on: MAP2K7
# MAP3K5 = tested on: MAP3K5
# MARK3, MARK4 = test: KiNativ kinase profiling in A375 cells; settings: Lys1, SEQ ID NO 94, 1.0 μM
# MAST1, MAST2 = test: KiNativ kinase profiling in A375 cells; settings: Lys2, SEQ ID NO 96, 1.0 μM
# MSK2 domain1 = tested on: MSK2 domain1
# NDR1 = tested on: NDR1
# NDR2 = tested on: NDR2
# NEK8 = tested on: NEK8
# OSR1 = tested on: OSR1
# p70S6K = tested on: p70S6K
# p70S6Kb = tested on: p70S6Kb
# PCTAIRE1 = tested on: PCTAIRE1
# PFTAIRE1 = tested on: PFTAIRE1
# PI4KA, PI4KAP2 = test: KiNativ kinase profiling in A375 cells; settings: ATP, SEQ ID NO 141, 1.0 μM
# PI4KB = tested on: PI4KB
# PIK3C3 = tested on: PIK3C3
# PIP4K2A = tested on: PIP4K2A
# PLK1 = tested on: PLK1
# PRP4 = tested on: PRP4
# PYK2 = tested on: PYK2
# ROCK1, ROCK2 = test: KiNativ kinase profiling in A375 cells; settings: Lys2, SEQ ID NO 163, 1.0 μM
# RSK3 domain1 = tested on: RSK3 domain1
# RSK4 domain1 = tested on: RSK4 domain1
# SNRK = tested on: SNRK
# STK33 = tested on: STK33
# TAO2 = tested on: TAO2
# TBK1 = tested on: TBK1
# TLK2 = tested on: TLK2
# YANK3 = tested on: YANK3
# [1] = tested on: ZC1/HGK, ZC2/TNIK, ZC3/MINK; test: KiNativ kinase profiling in A375 cells; settings: Lys2, SEQ ID NO 198, 1.0 μM
smiles,measurement,setting,value
"CCN1CCN(Cc2ccc(NC(=O)c3ccc(C)c(Oc4cc(N)ncn4)c3)cc2C(F)(F)F)CC1 [(A-4), 3-((6-aminopyrimidin-4-yl)oxy)-N-(4-((4-ethylpiperazin-1-yl)methyl)-3-(trifluoromethyl)phenyl)-4-methylbenzamide]",inhibition of kinase labeling,ACK,4.9%
same,inhibition of kinase labeling,ATR,23.0%
same,inhibition of kinase labeling,AurB,−51.1%
same,inhibition of kinase labeling,BTK,−18.8%
same,inhibition of kinase labeling,CaMK1a,12.4%
same,inhibition of kinase labeling,CAMK2G,−23.1%
same,inhibition of kinase labeling,CASK,−28.1%
same,inhibition of kinase labeling,"CDK11, CDK8",50.0%
same,inhibition of kinase labeling,CDK4,17.4%
same,inhibition of kinase labeling,CDK9,−16.2%
same,inhibition of kinase labeling,CHK2,−7.8%
same,inhibition of kinase labeling,CK1a,−0.6%
same,inhibition of kinase labeling,CK1g2,−9.1%
same,inhibition of kinase labeling,CK2a2,−18.2%
same,inhibition of kinase labeling,DGKQ,11.0%
same,inhibition of kinase labeling,ERK1,−9.0%
same,inhibition of kinase labeling,GSK3B,0.5%
same,inhibition of kinase labeling,HPK1,68.1%
same,inhibition of kinase labeling,IRAKI,−3.5%
same,inhibition of kinase labeling,ITPK1,1.2%
same,inhibition of kinase labeling,LRRK2,−15.9%
same,inhibition of kinase labeling,MAP2K7,−38.2%
same,inhibition of kinase labeling,MAP3K5,−30.4%
same,inhibition of kinase labeling,"MARK3, MARK4",−16.2%
same,inhibition of kinase labeling,"MAST1, MAST2",35.6%
same,inhibition of kinase labeling,MSK2 domain1,−64.9%
same,inhibition of kinase labeling,NDR1,9.3%
same,inhibition of kinase labeling,NDR2,−10.9%
same,inhibition of kinase labeling,NEK8,−11.4%
same,inhibition of kinase labeling,OSR1,−11.1%
same,inhibition of kinase labeling,p70S6K,−2.3%
same,inhibition of kinase labeling,p70S6Kb,8.2%
same,inhibition of kinase labeling,PCTAIRE1,−3.5%
same,inhibition of kinase labeling,PFTAIRE1,4.3%
same,inhibition of kinase labeling,"PI4KA, PI4KAP2",19.3%
same,inhibition of kinase labeling,PI4KB,−0.2%
same,inhibition of kinase labeling,PIK3C3,−5.1%
same,inhibition of kinase labeling,PIP4K2A,−26.7%
same,inhibition of kinase labeling,PLK1,−9.1%
same,inhibition of kinase labeling,PRP4,−20.1%
same,inhibition of kinase labeling,PYK2,10.9%
same,inhibition of kinase labeling,"ROCK1, ROCK2",22.0%
same,inhibition of kinase labeling,RSK3 domain1,−32.6%
same,inhibition of kinase labeling,RSK4 domain1,27.6%
same,inhibition of kinase labeling,SNRK,18.0%
same,inhibition of kinase labeling,STK33,12.9%
same,inhibition of kinase labeling,TAO2,86.0%
same,inhibition of kinase labeling,TBK1,18.2%
same,inhibition of kinase labeling,TLK2,7.1%
same,inhibition of kinase labeling,YANK3,27.7%
same,inhibition of kinase labeling,[1],19.2%
